Experimental data: patent US9624167B2, “N-(4-hydroxy-4-methyl-cyclohexyl)-4-phenyl-benzenesulfonamides and N-(4-hydroxy-4-methyl-cyclohexyl)-4-(2-pyridyl)benzenesulfonamides and their therapeutic use” (PIMCO 2664 LIMITED, priority 2013, dated 2017)
≈ marks a conversion by molar mass, not a printed value.

How the values were obtained:
hERG = molecular target: T1, hERG (Homo sapiens, UniProt Q12809); test: hERG Ion Channel Assay (Q-patch, hERG-CHO cells); format: cell-based; conditions: human, CHO cells stably transfected with hERG (hERG-CHO), pH 7.4, 30 μM
T1 construct: expressed in transfected cells; host or cells: Chinese Hamster Ovary cells (hERG-CHO), stably transfected
T1 sequence (Q12809 whole entry): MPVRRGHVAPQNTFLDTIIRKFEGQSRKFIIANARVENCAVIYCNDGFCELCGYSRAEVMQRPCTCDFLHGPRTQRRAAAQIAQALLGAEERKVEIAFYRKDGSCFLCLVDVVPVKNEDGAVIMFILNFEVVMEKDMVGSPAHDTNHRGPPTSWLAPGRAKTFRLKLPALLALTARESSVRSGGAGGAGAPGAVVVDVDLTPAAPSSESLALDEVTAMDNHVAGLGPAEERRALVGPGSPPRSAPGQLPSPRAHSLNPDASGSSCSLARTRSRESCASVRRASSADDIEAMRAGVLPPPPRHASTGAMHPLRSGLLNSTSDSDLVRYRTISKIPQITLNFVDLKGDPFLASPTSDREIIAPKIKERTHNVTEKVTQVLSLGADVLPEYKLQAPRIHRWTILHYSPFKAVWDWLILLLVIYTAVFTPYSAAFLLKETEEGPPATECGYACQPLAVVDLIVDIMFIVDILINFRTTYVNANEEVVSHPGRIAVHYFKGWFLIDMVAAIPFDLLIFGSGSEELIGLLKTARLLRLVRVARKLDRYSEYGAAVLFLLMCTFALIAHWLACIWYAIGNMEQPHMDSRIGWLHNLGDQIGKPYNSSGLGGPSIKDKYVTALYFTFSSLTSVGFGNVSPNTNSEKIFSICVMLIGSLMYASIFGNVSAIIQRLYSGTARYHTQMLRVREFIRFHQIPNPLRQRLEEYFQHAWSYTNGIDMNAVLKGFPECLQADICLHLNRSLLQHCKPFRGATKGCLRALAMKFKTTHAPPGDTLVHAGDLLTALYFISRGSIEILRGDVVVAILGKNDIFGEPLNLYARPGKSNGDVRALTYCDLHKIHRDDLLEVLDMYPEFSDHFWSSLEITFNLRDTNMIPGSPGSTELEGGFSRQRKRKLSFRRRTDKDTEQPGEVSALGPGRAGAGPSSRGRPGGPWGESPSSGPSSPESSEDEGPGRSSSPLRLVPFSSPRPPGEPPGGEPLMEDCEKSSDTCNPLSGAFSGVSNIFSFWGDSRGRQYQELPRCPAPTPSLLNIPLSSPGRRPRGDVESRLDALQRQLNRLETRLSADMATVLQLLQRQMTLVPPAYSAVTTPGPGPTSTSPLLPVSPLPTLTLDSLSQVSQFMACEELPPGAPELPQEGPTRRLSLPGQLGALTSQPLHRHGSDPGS
Experimental: The activity of the compounds against the hERG ion channel was tested. The assay was conducted using the automated path-clamp, Q-patch method using stably transfected Chinese Hamster Ovary cells (hERG-CHO). hERG-CHO cells were cultured in F-12 Kaighn's Nutrient Mixture medium (Invitrogen)+10% FBS at 37° C. for 1-3 days. Cells were kept at 30° C. for 24 to 48 hours prior to patch clamping in order to increase the hERG current amplitude. Subsequently, the cells were harvested by trypsinisation, and kept in Serum Free Medium (SFM) in the Q-patch cell preparation state for up to 6 hours at room temperature before being washed and re-suspended in extracellular solution and applied to the patch clamp sites for data recording.
Patch-clamp voltage protocol: After whole cell configuration was achieved, the cell was held at −80 mV. A 50 millisecond pulse to −40 mV was delivered to measure the leaking current, which was subtracted from the tail current on-line. Then the cell was depolarized to +20 mV for 2 seconds, followed by a one second pulse to −40 mV to reveal hERG tail current. This paradigm was delivered once every 5 seconds to monitor the current amplitude.
Extracellular solution: 137 mM NaCl, 4 mM KCl, 1.8 mM CaCl2, 1 mM MgCl2, 10 mM D(+)-glucose, 10 mM HePES buffer (pH adjusted to 7.4 with NaOH).
After the whole cell configuration was achieved, the extracellular solution (control) was applied first and the cell was stabilized for 2 minutes in extracellular solution. The test compound was then applied from low concentrations to high concentrations cumulatively. The cell was incubated with each test concentration for 5 minutes. During each incubation, the cell was repetitively stimulated using the voltage protocol described above, and the tail current amplitude was continuously monitored.
• (1) Peak tail current >100 pA in control. • (2) Initial run-down <30% and the run-down stops before first application of the test compound. • (3) Leak currents <50% of the control peak tail currents at any time. • (4) rs<20 MΩ throughout the experiment.
The degree of inhibition (%) was obtained by measuring the tail current amplitude, induced by a one second test pulse to −40 mV after a two second pulse to +20 mV, before and after incubation with the test compound. The difference in current was normalized to control and multiplied by 100 in order to obtain the percent inhibition.
Concentration (log) response curves were fitted to a logistic equation (three parameters assuming complete block of the current at very high test compound concentrations) to generate estimates of the 50% inhibitory concentration (IC50). The concentration-response relationship of each compound was constructed from the percentage reductions of current amplitude by sequential concentrations.

[1] = Aqueous (FaSSIF) solubility; format: physicochemical; conditions: fasted state simulated intestinal fluid (FaSSIF); for solubility at 16 h: kinetic from dmso stock, pH 6.5, three replicates, read-out: Solubility (1); for solubility: pH 6.8, two replicates, read-out: Solubility (2)
Experimental: Solubility was measured by equilibration of the compound in fasted state simulated intestinal fluid (FaSSIF) and quantified by high-performance liquid chromatography (HPLC).
Aqueous solubility was measured by equilibration of compounds with fasted state simulated intestinal fluid (FaSSIF) and quantified spectrophotometrically.
FaSSIF was prepared as described below:
Preparation of blank FaSSIF: 0.21 g of sodium hydroxide (NaOH) pellets, 1.97 g of dihydrogen sodium phosphate (NaH2PO4.2H2O) and 3.09 g of sodium chloride (NaCl) were dissolved in 400 mL of deionised water. […]
Preparation of FaSSIF: 0.056 g of SIF Powder (containing sodium taurocholate and lecithin) (Phares AG) was dissolved in 25 mL of blank FaSSIF and stirred until the powder was completely dissolved. The solution was allowed to stand for 2 hours during which it became opalescent; it was used within 24 hours. The final solution composition was characterised as follows: • Sodium taurocholate: 3 mM • Lecithin: 0.75 mM • Osmolarity: 270±10 mOsmol • pH: 6.5
The optical density was measured at the end of the incubation period for test compounds and a reference used to determine solubility. In brief, two samples were prepared for each determination: a reference sample consisting of a stock solution of test compound in DMSO diluted in system solution (a phosphate free, low absorption buffer) and propanol; and a test sample (prepared in triplicate) consisting of 0.5 mL FaSSIF spiked with test compound at 0.2 mM. Each sample was incubated at room temperature for 16 hours with constant shaking at 250 rpm. At the end of the incubation period, 0.3 mL of each sample was filtered through a pION filter plate (PION, Woburn Mass.), diluted 1:1 with propanol and scanned using UV spectrophotometry at λmax ([…]) using a Spectra Max Plus—Version 2.1000 (Molecular Devices, Sunnyvale, Calif.), with μSOL Explorer solubility determination software (pION, Woburn, Mass.).
FaSSIF solubility was calculated using the following formula:
[formula] wherein: • “OD” is the optical density; • “Cr” is the concentration of the reference (33.4 μM); and • “molecular weight” is for the test compound (e.g., 381.44 for ABD735).

Row | Structure (SMILES) | inhibition at 5 min, 30 µM (hERG; hERG tail current) | solubility at 16 h [1] | solubility [1] | inhibition at 5 min, 30 µM (hERG; a lab-scale batch was tested) | inhibition at 5 min, 30 µM (hERG; a mid-scale batch was tested)
1 | Cc1cc(S(=O)(=O)NC2CCC(C)(O)CC2)ccc1-c1ccc(F)cc1F (single isomer, unassigned) [REF001, reference compound] | 60% | 50 µg/mL (≈ 126 µM) |  |  | 
2 | C[C@]1(O)CC[C@H](NS(=O)(=O)c2ccc(-c3ccc(F)cc3C(F)(F)F)cc2)CC1 [HMC-C-02-A, 4′-Fluoro-N-((1r,4r)-4-hydroxy-4-methylcyclohexyl)-2′-(trifluoromethyl)biphenyl-4-sulfonamide] | 57% | 40 µg/mL (≈ 92.7 µM) |  |  | 
3 | C[C@]1(O)CC[C@H](NS(=O)(=O)c2ccc(-c3c(F)cc(F)cc3F)cc2)CC1 [HMC-C-03-A, 2′,4′,6′-Trifluoro-N-((1r,4r)-4-hydroxy-4-methylcyclohexyl)biphenyl-4-sulfonamide] | 45% | 30 µg/mL (≈ 75.1 µM) |  |  | 
4 | C[C@]1(O)CC[C@H](NS(=O)(=O)c2ccc(-c3ncc(F)cc3F)cc2)CC1 [HMC-N-02-A, 4-(3,5-Difluoropyridin-2-yl)-N-((1r,4r)-4-hydroxy-4-methylcyclohexyl)benzenesulfonamide] | 31% | 20 µg/mL (≈ 52.3 µM) |  |  | 
5 | C[C@]1(O)CC[C@H](NS(=O)(=O)c2ccc(-c3ncc(Cl)cc3Cl)c(F)c2)CC1 [HMC-N-04-A, 4-(3,5-Dichloropyridin-2-yl)-3-fluoro-N-((1r,4r)-4-hydroxy-4-methylcyclohexyl)benzenesulfonamide] | 26% | 60 µg/mL (≈ 138 µM) |  |  | 
6 | C[C@]1(O)CC[C@H](NS(=O)(=O)c2ccc(-c3ccc(F)cc3F)c(F)c2)CC1 [HMC-C-04-A, 2,2′,4′-Trifluoro-N-((1r,4r)-4-hydroxy-4-methylcyclohexyl)-[1,1′-biphenyl]-4-sulfonamide] | 69% |  | 80 µg/mL (≈ 200 µM) |  | 
7 | C[C@]1(O)CC[C@@H](NS(=O)(=O)c2ccc(-c3ncc(Cl)cc3Cl)cc2)CC1 [HMC-N-03-B, 4-(3,5-Dichloropyridin-2-yl)-N-((1s,4s)-4-hydroxy-4-methylcyclohexyl)benzenesulfonamide] | 47% |  | 100 µg/mL (≈ 241 µM) |  | 
8 | C[C@]1(O)CC[C@@H](NS(=O)(=O)c2ccc(-c3ncc(F)cc3F)c(F)c2)CC1 [HMC-N-01-B, 4-(3,5-Difluoropyridin-2-yl)-3-fluoro-N-((1s,4s)-4-hydroxy-4-methylcyclohexyl)benzenesulfonamide] | 27% |  | 120 µg/mL (≈ 300 µM) |  | 
9 | C[C@]1(O)CC[C@@H](NS(=O)(=O)c2ccc(-c3ccc(F)cc3F)c(F)c2)CC1 [HMC-C-04-B, 2,2′,4′-Trifluoro-N-((1s,4s)-4-hydroxy-4-methylcyclohexyl)-[1,1′-biphenyl]-4-sulfonamide] |  |  | 130 µg/mL (≈ 325 µM) |  | 
10 | Cc1cc(S(=O)(=O)N[C@H]2CC[C@H](O)CC2)ccc1-c1ccc(F)cc1F [ABD735] | 62.5% | 20 µg/mL (≈ 52.4 µM) |  |  | 
11 | C[C@]1(O)CC[C@H](NS(=O)(=O)c2ccc(-c3ccc(F)cc3F)cc2)CC1 [ABD900, reference compound] | 51% |  | 120 µg/mL (≈ 315 µM) |  | 
12 | O=S(=O)(N[C@H]1CC[C@H](O)CC1)c1ccc(-c2ncc(Cl)cc2Cl)cc1 [ABD836, reference compound] | 50% | 30 µg/mL (≈ 74.8 µM) |  |  | 
13 | C[C@]1(O)CC[C@@H](NS(=O)(=O)c2ccc(-c3c(F)cc(F)cc3F)cc2)CC1 [HMC-C-03-B, 2′,4′,6′-Trifluoro-N-((1s,4s)-4-hydroxy-4-methylcyclohexyl)-[1,1′-biphenyl]-4-sulfonamide] | 36% |  | 150 µg/mL (≈ 376 µM) |  | 
14 | C[C@]1(O)CC[C@@H](NS(=O)(=O)c2ccc(-c3ccc(Cl)cc3C#N)cc2)CC1 [HMC-C-01-B, 4′-Chloro-2′-cyano-N-((1s,4s)-4-hydroxy-4-methylcyclohexyl)-[1,1′-biphenyl]-4-sulfonamide] | 74% |  | 80 µg/mL (≈ 198 µM) |  | 
15 | C[C@]1(O)CC[C@@H](NS(=O)(=O)c2ccc(-c3ncc(F)cc3F)cc2)CC1 [HMC-N-02-B, 4-(3,5-Difluoropyridin-2-yl)-N-((1s,4s)-4-hydroxy-4-methylcyclohexyl)benzenesulfonamide] | 23% |  | 120 µg/mL (≈ 314 µM) |  | 
16 | C[C@]1(O)CC[C@H](NS(=O)(=O)c2ccc(-c3ccc(Cl)cc3C#N)cc2)CC1 [HMC-C-01-A, 4′-Chloro-2′-cyano-N-((1r,4r)-4-hydroxy-4-methylcyclohexyl)biphenyl-4-sulfonamide] | 79% | 60 µg/mL (≈ 148 µM) |  |  | 
17 | C[C@]1(O)CC[C@@H](NS(=O)(=O)c2ccc(-c3ccc(F)cc3F)cc2)CC1 [ABD899, reference compound] |  | 60 µg/mL (≈ 157 µM) | 130 µg/mL (≈ 341 µM) | 100% | 53%
18 | C[C@]1(O)CC[C@H](NS(=O)(=O)c2ccc(-c3ncc(F)cc3F)c(F)c2)CC1 [HMC-N-01-A, 4-(3,5-Difluoropyridin-2-yl)-3-fluoro-N-((1r,4r)-4-hydroxy-4-methylcyclohexyl)benzenesulfonamide] | 2% | 30 µg/mL (≈ 74.9 µM) |  |  | 
19 | C[C@]1(O)CC[C@H](NS(=O)(=O)c2ccc(-c3ncc(Cl)cc3Cl)cc2)CC1 [HMC-N-03-A, 4-(3,5-Dichloropyridin-2-yl)-N-((1r,4r)-4-hydroxy-4-methylcyclohexyl)benzenesulfonamide] | 13% | > 80 µg/mL |  |  | 
20 | C[C@]1(O)CC[C@@H](NS(=O)(=O)c2ccc(-c3ccc(F)cc3C(F)(F)F)cc2)CC1 [HMC-C-02-B, 4′-Fluoro-N-((1s,4s)-4-hydroxy-4-methylcyclohexyl)-2′-(trifluoromethyl)-[1,1′-biphenyl]-4-sulfonamide] | 94% |  | 70 µg/mL (≈ 162 µM) |  | 
